According to patent publication US9504673B2, “Agent for the prophylaxis and treatment of highly pathogenic infectious diseases” (priority 2009, dated 2016):
Several values for one entry are separate records, joined by “and”; a condition that tells them apart may be missing. Equal values may be shown once. Read-outs that look alike come from different tables or passages of the source.

Assays:
[1] = tested on: severe acute respiratory syndrome virus; design: species or system Syrian hamsters; details: hamster, in vivo, po
[2] = Acute toxicity study of glutaryl histamine; details: male, nonlinear white (outbred), mouse, in vivo, po
[3] = tested on: influenza virus strain A/chicken/Kurgan/Russia/02/05 (H5N1); design: species or system white mice; details: mouse, in vivo, po

SMILES	Therapeutic efficacy, % ([1]; 5 mg/kg)	Virus yield in the lungs at peak of infection (on day 4) 1 g PFU/ml ([1]; 5 mg/kg)	Virus yield in the lungs at peak of infection (on day 4) Δ, 1 g ([1]; 5 mg/kg)	Therapeutic efficacy, % ([1]; 15 mg/kg)	Virus yield in the lungs at peak of infection (on day 4) 1 g PFU/ml ([1]; 15 mg/kg)	Virus yield in the lungs at peak of infection (on day 4) Δ, 1 g ([1]; 15 mg/kg)	LD50 [2]	Death rate ([3]; 5 mg/kg)	Deaths ([3]; 5 mg/kg)	Increase of mean lifetime Δ ([3]; 5 mg/kg)	Mean lifetime of animals in the group ([3]; 5 mg/kg)	Protective efficacy against death, % ([3]; 5 mg/kg)	Death rate ([3]; 15 mg/kg)	Increase of mean lifetime Δ ([3]; 15 mg/kg)	Mean lifetime of animals in the group ([3]; 15 mg/kg)	Protective efficacy against death, % ([3]; 15 mg/kg)	Death rate ([3]; 135 mg/kg)	Increase of mean lifetime Δ ([3]; 135 mg/kg)	Mean lifetime of animals in the group ([3]; 135 mg/kg)
O=C(O)CCCC(=O)NCCc1c[nH]cn1 [glutaryl histamine]	20.0% and 30.0%	7.5 1 g PFU/ml and 7.0 1 g PFU/ml	0.8 1 g and 0.9 1 g	40%	3.8 1 g PFU/ml	2.4 1 g	> 10000 mg/kg	12/20	11	2.7 days and 1.8 days	10.9 days and 10.0 days	45% and 40%	12/20 and 13/20	2.4 days and 2.0 days	11.0 days and 8.7 days	40% and 35%	–	–	–
CCOC(=O)c1c(CSc2ccccc2)n(C)c2cc(Br)c(O)c(CN(C)C)c12 [Arbidol ®, reference compound]	–	–	–	–	–	–	–	–	–	–	–	–	–	–	–	–	15/20 and 18/20	1.4 days and 1.1 days	8.0 days and 7.2 days
